From ChEMBL document CHEMBL3808341, “Natural nitric oxide (NO) inhibitors from Chloranthus japonicus” (Bioorg Med Chem Lett, 2016) come the findings set out here.

The test system of one assay is RAW264.7. The experiment in a line: Inhibition of LPS-induced NO production in mouse RAW264.7 cells after 24 hrs by Griess assay. It counts as functional, cell-based. Particulars: RAW264.7, 24 h.
One may read the IC50 as the point on the concentration scale where inhibition reaches its midpoint. A higher IC50 goes with weaker potency. With `C=C1[C@H]2C[C@H]2[C@]2(C)[C@@H]3CC4=C5[C@H](C(C(C)C(=O)OC)=C(O)C(=O)[C@@]5(C)[C@@H]5C[C@H]45)[C@@]34OC(=O)C(C)=C4C[C@@H]12` (some centres not stated), the IC50 was found to be 26.3 µM. Still for that read-out and setting: next, `CO[C@]12OC(=O)C(C)=C1C1=C3[C@](C)([C@@H]4C[C@@H]4[C@@]3(O)C[C@@H]3[C@]14OC(=O)C1=C4C[C@H]4[C@](O)(COC(=O)/C(C)=C/COC(=O)CCC(=O)OC1)[C@H]1C[C@H]1[C@]34C)[C@H]2O`: 43.2 µM; `COC(=O)/C(C)=C1\C(=O)[C@H](O)[C@]2(C)C3=C(C[C@@H]4[C@]5(OC(=O)C(CO)=C5C[C@H]5[C@H](COC(C)=O)[C@H]6C[C@H]6[C@]45C)[C@H]31)[C@H]1C[C@H]12`: 6.91 µM.

As for `C=C1[C@H]2C[C@H]2[C@@]2(C)[C@H]1[C@@H](OC(C)=O)C1=C(C)C(=O)O[C@@]13[C@@H]1C4=C(C[C@H]32)[C@H]2C[C@H]2[C@]4(C)[C@@H](O)C(=O)/C1=C(/C)C(=O)OC`, the IC50 came to 25.1 µM. Compared with the last compound, the IC50 is about 3.6-fold higher. On the same count and under the same terms, the result for `C=C1[C@H]2C[C@H]2[C@]2(C)[C@@H]3CC4=C5[C@H](/C(=C(\C)C(=O)OC)C(=O)C[C@@]5(C)[C@@H]5C[C@H]45)[C@@]34OC(=O)C(C)=C4C[C@@H]12` reads 24.4 µM. On the same count and under the same terms, next, `C=C1[C@H]2C[C@H]2[C@]2(C)[C@@H]3[C@@H](O)C4=C5[C@H](/C(=C(\C)C(=O)OC)C(=O)[C@H](O)[C@@]5(C)[C@@H]5C[C@H]45)[C@@]34OC(=O)C(C)=C4C[C@@H]12`: 46.5 µM; `C=C1[C@H]2C[C@H]2[C@]2(C)[C@@H]3CC4=C5[C@H](/C(=C(\C)C(=O)OC)C(=O)[C@H](O)[C@@]5(C)[C@@H]5C[C@H]45)[C@@]34OC(=O)C(C)=C4C[C@@H]12`: 27 µM.

`COC(=O)/C(C)=C1\C(=O)[C@H](O)[C@]2(C)C3=C(C[C@@H]4[C@]5(OC(=O)C6=C5C[C@H]5[C@](O)(COC(=O)/C(C)=C/COC(=O)CCC(=O)OC6)[C@H]6C[C@H]6[C@]45C)[C@H]31)[C@H]1C[C@H]12` [SHIZUKAOL B] had an IC50 of 14.8 µM. Take `O=c1c(O)c(-c2ccc(O)c(O)c2)oc2cc(O)cc(O)c12` [QUERCETIN]: the IC50 worked out at 15.9 µM. Still for that read-out and setting: the result for `COC(=O)/C(C)=C1\C(=O)[C@H](O)[C@]2(C)C3=C(C[C@@H]4[C@]5(OC(=O)C6=C5C[C@H]5[C@](O)(COC(=O)/C=C(\C)COC(=O)CCC(=O)OC6)[C@H]6C[C@H]6[C@]45C)[C@H]31)[C@H]1C[C@H]12` [SHIZUKAOL F] reads 21 µM; that for `C=C1[C@H]2C[C@H]2[C@]2(C)[C@@H]3CC4=C5[C@H](/C(=C(/C)C(=O)OC)C(=O)[C@H](O)[C@@]5(C)[C@@H]5C[C@H]45)[C@@]34OC(=O)C(C)=C4C[C@@H]12`, 26.5 µM. `C/C=C(\C)C(=O)OC[C@]1(O)[C@H]2C[C@H]2[C@]2(C)[C@@H]3CC4=C5[C@H](/C(=C(\C)C(=O)OC)C(=O)[C@H](O)[C@@]5(C)[C@@H]5C[C@H]45)[C@@]34OC(=O)C(COC(=O)CCC(=O)O)=C4C[C@@H]12`: the IC50 turned out to be 11.6 µM. The same measure, in the same setting: the result for `C=C1[C@H]2C[C@H]2[C@]2(C)[C@@H]3C[C@@]4(O)C5=C(C6=C(C)C(=O)O[C@]6(OCCCC)[C@H](O)[C@@]5(C)[C@@H]5C[C@@H]54)[C@@]34OC(=O)C(C)=C4C[C@@H]12` reads 39.4 µM.

The test system of the next assay is RAW264.7. The assay is described as follows: Inhibition of LPS-induced NO production in mouse RAW264.7 cells at 50 uM after 24 hrs by Griess assay. The assay is classed as functional. The note with it: RAW264.7, 24 h.
One may read the inhibition as how much of the control response was suppressed. Read a low inhibition as a weak effect. The compound `C=C1[C@H]2C[C@H]2[C@]2(C)[C@@H]3C[C@@]4(O)C5=C(C6=C(C)C(=O)O[C@]6(OC)[C@H](O)[C@@]5(C)[C@@H]5C[C@@H]54)[C@@]34OC(=O)C(C)=C4C[C@@H]12` showed an inhibition at 50 µM of less than 50%. The same measure, in the same setting: the result for `C=C1[C@H]2C[C@H]2[C@]2(C)[C@@H]3C[C@@]4(O)C5=C(C6=C(C)C(=O)O[C@]6(O)[C@H](O)[C@@]5(C)[C@@H]5C[C@@H]54)[C@@]34OC(=O)C(C)=C4C[C@@H]12` reads less than 50%.

Take `C=C1[C@H]2C[C@H]2[C@]2(C)[C@@H]3C[C@@]4(OO)C5=C(/C(=C(\C)C(=O)OC)C(=O)[C@H](O)[C@@]5(C)[C@@H]5C[C@@H]54)[C@@]34OC(=O)C(C)=C4C[C@@H]12`: the inhibition at 50 µM is less than 50%. On the same count and under the same terms, the result for `C=C1[C@H]2C[C@H]2[C@@]2(C)[C@H]1[C@@H](OC(C)=O)C1=C(C)C(=O)O[C@@]13C1=C4[C@](C)([C@@H]5C[C@@H]5[C@@]4(O)C[C@H]32)[C@@H](O)C(=O)/C1=C(/C)C(=O)OC` reads less than 50%.
